Measured values taken from the supplement of paper PMC9663587.

Key:
Test in all cases: increase in dead-cell fraction, 72 h; higher = more death;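 also: breast cancer cell lines in 384-well plates, stained with Hoechst plus LIVE/DEAD far red dye and imaged, cells above an LDR intensity threshold counted dead, Hoechst-negative corpses included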
Neratinib/HKI272 = compound: CCOc1cc2ncc(C#N)c(Nc3ccc(OCc4ccccn4)c(Cl)c3)c2cc1NC(=O)/C=C/CN(C)C [Neratinib/HKI272]
THZ531 = compound: CN(C)C/C=C/C(=O)Nc1ccc(C(=O)N2CCC[C@@H](Nc3ncc(Cl)c(-c4c[nH]c5ccccc45)n3)C2)cc1 [THZ531]
YKL-5-124 = compound: C=CC(=O)Nc1ccc(C(=O)Nc2[nH]nc3c2CN(C(=O)N[C@H](CN(C)C)c2ccccc2)C3(C)C)cc1 [YKL-5-124]
[1] = compound: CCc1cnn2c(NCc3ccc[n+]([O-])c3)cc(N3CCCC[C@H]3CCO)nc12
THZ1 = compound: CN(C)C/C=C/C(=O)Nc1ccc(C(=O)Nc2cccc(Nc3ncc(Cl)c(-c4c[nH]c5ccccc45)n3)c2)cc1 [THZ1]
Flavopiridol = compound: CN1CC[C@H](c2c(O)cc(O)c3c(=O)cc(-c4ccccc4Cl)oc23)[C@H](O)C1 [Flavopiridol]

## MDAMB453
Neratinib/HKI272; 0.3162 µM
  increase in dead-cell fraction: 0.177
Neratinib/HKI272; 1 µM
  increase in dead-cell fraction: 0.212
Neratinib/HKI272; 3.162 µM
  increase in dead-cell fraction: 0.348
THZ531; 0.0001 µM
  increase in dead-cell fraction: 0.0012
THZ531; 0.0003162 µM
  increase in dead-cell fraction: 0.0037
THZ531; 0.001 µM
  increase in dead-cell fraction: 0.0069
THZ531; 0.003162 µM
  increase in dead-cell fraction: 0.0027
THZ531; 0.01 µM
  increase in dead-cell fraction: 0.0057
THZ531; 0.03162 µM
  increase in dead-cell fraction: 0.0394
THZ531; 0.1 µM
  increase in dead-cell fraction: 0.16
THZ531; 0.3162 µM
  increase in dead-cell fraction: 0.187
THZ531; 1 µM
  increase in dead-cell fraction: 0.157
YKL-5-124; 0.001 µM
  increase in dead-cell fraction: 0.007
YKL-5-124; 0.003162 µM
  increase in dead-cell fraction: 0.013
YKL-5-124; 0.01 µM
  increase in dead-cell fraction: 0.0243
YKL-5-124; 0.03162 µM
  increase in dead-cell fraction: 0.0344
YKL-5-124; 0.1 µM
  increase in dead-cell fraction: 0.0489
YKL-5-124; 0.3162 µM
  increase in dead-cell fraction: 0.033
YKL-5-124; 1 µM
  increase in dead-cell fraction: 0.0346
YKL-5-124; 3.162 µM
  increase in dead-cell fraction: 0.0296
YKL-5-124; 10 µM
  increase in dead-cell fraction: 0.275
[1]; 0.0001 µM
  increase in dead-cell fraction: 0.0187
[1]; 0.0003162 µM
  increase in dead-cell fraction: -0.0038
[1]; 0.001 µM
  increase in dead-cell fraction: -0.0082
[1]; 0.003162 µM
  increase in dead-cell fraction: -0.004
[1]; 0.01 µM
  increase in dead-cell fraction: 0.0474
[1]; 0.03162 µM
  increase in dead-cell fraction: 0.251
[1]; 0.1 µM
  increase in dead-cell fraction: 0.309
[1]; 0.3162 µM
  increase in dead-cell fraction: 0.286
[1]; 1 µM
  increase in dead-cell fraction: 0.318
THZ1; 0.0001 µM
  increase in dead-cell fraction: 0.0006
THZ1; 0.0003162 µM
  increase in dead-cell fraction: -0.0024
THZ1; 0.001 µM
  increase in dead-cell fraction: -0.0042
THZ1; 0.003162 µM
  increase in dead-cell fraction: 0.0021
THZ1; 0.01 µM
  increase in dead-cell fraction: 0.0161
THZ1; 0.03162 µM
  increase in dead-cell fraction: 0.0525
THZ1; 0.1 µM
  increase in dead-cell fraction: 0.133
THZ1; 0.3162 µM
  increase in dead-cell fraction: 0.101
THZ1; 1 µM
  increase in dead-cell fraction: 0.122
Flavopiridol; 0.0001 µM
  increase in dead-cell fraction: -0.0017
Flavopiridol; 0.0003162 µM
  increase in dead-cell fraction: -0.0022
Flavopiridol; 0.001 µM
  increase in dead-cell fraction: -0.0038
Flavopiridol; 0.003162 µM
  increase in dead-cell fraction: -0.0016
Flavopiridol; 0.01 µM
  increase in dead-cell fraction: -0.0001
Flavopiridol; 0.03162 µM
  increase in dead-cell fraction: -0.0034
Flavopiridol; 0.1 µM
  increase in dead-cell fraction: 0.0018
Flavopiridol; 0.3162 µM
  increase in dead-cell fraction: 0.0317
Flavopiridol; 1 µM
  increase in dead-cell fraction: 0.168
